Where “and” joins values, the source holds several entries; their conditions need not be identical. Identical values can stand only once.
System: mouse norovirus
Assay: Mouse Norovirus (MNV) assay in RAW cells
Settings: murine norovirus
[1] = Table 8, N/A = assayed but no EC50 value could be measured

SMILES | EC50 [1] | further results
Cc1nc(N)c2c(C(N)=O)cn([C@@H]3O[C@H](COC(=O)[C@@H](N)C(C)C)[C@@H](O)[C@H]3O)c2n1 [Compound 2] | – | EC50 (Table 7): 1.9 to 4.15 µM
Cc1nc(N)c2c(C(N)=O)cn([C@@H]3O[C@H](COC(=O)[C@H](C)N)[C@@H](O)[C@H]3O)c2n1 [Compound 3] | – | EC50 (Table 7): 2 µM
CCCCCCCCCCCCCCCCOCCC(=O)OC[C@H]1O[C@@H](n2cc(C(N)=O)c3c(N)nc(C)nc32)[C@H](O)[C@@H]1O [Compound 4] | – | EC50 (Table 7): 3.5 µM
Cc1nc(N)c2c(C(N)=O)cn([C@@H]3O[C@H](COC(=O)[C@@H](N)Cc4ccccc4)[C@@H](O)[C@H]3O)c2n1 [Compound 5] | – | EC50 (Table 7): 2.2 µM
[2H][C@@]1(n2cc(C(N)=O)c3c(N)nc(C)nc32)O[C@H](CO)[C@@H](O)[C@H]1O [Compound 6] | – | EC50 (Table 7): 3.08 µM
Cc1nc(O)c2c(C(N)=O)cn([C@@H]3O[C@H](CO)[C@@H](O)[C@H]3O)c2n1 [Compound 7] | 53.8 µM and 38.4 µM | EC50 (Table 8, N/A = assayed but no EC50 value could be measured, listed as compound 7): > 38 µM
Cc1nc(N)c2c(C(N)=O)cn([C@@H]3O[C@H](CO)[C@@H](O)[C@H]3O)c2[n+]1[O-] [Compound 8] | 23.6 µM | –
Cc1nc(N)c2c(C(N)=O)cn([C@@H]3O[C@H](CO)[C@@H](O)[C@@H]3O)c2n1 [Compound 9] | 50 µM | –
Cc1nc(N)c2c(-c3nn[nH]n3)cn([C@@H]3O[C@H](CO)[C@@H](O)[C@H]3O)c2n1 [Compound 10] | 61.5 µM | –
Cc1nc(N)c2c(C#N)cn([C@@H]3O[C@H](CO)[C@@H](O)[C@H]3O)c2n1 [Compound 11] | > 121 µM | –
CCc1nc(N)c2c(C(N)=O)cn([C@@H]3O[C@H](CO)[C@@H](O)[C@H]3O)c2n1 [Compound 13] | > 200 µM | –
Cc1nc(N)c2c(I)cn([C@@H]3O[C@H](CO)[C@@H](O)[C@H]3O)c2n1 [Compound 14] | > 100 µM | –
NC(=O)c1cn([C@@H]2O[C@H](CO)[C@@H](O)[C@H]2O)c2nc(-c3ccccc3)nc(N)c12 [Compound 15] | > 100 µM | –
NC(=S)c1cn([C@@H]2O[C@H](CO)[C@@H](O)[C@H]2O)c2nc(-c3ccccc3)nc(N)c12 [Compound 16] | > 100 µM | –
N#Cc1cn([C@@H]2O[C@H](CO)[C@@H](O)[C@H]2O)c2nc(-c3ccccc3)nc(N)c12 [Compound 17] | > 100 µM | –
Cc1nc(N)c2c(C(N)=O)cn([C@@H]3O[C@H](COCc4ccccc4)[C@@H](O)[C@H]3O)c2n1 [Compound 19] | > 100 µM | –
Cc1nc(N)c2c(C(N)=O)cn([C@@H]3O[C@H](CO)[C@H]4OC(C)(C)O[C@H]43)c2n1 [Compound 20] | > 20 µM | –
CCOP(=O)(COC[C@H]1O[C@@H](n2cc(C(N)=O)c3c(N)nc(C)nc32)[C@@H]2OC(C)(C)O[C@@H]21)OCC [Compound 21] | > 100 µM | –
CCCCCCCCCCCCCCCOCCCOP(=O)(O)COC[C@H]1O[C@@H](n2cc(C(N)=O)c3c(N)nc(C)nc32)[C@@H]2OC(C)(C)O[C@@H]21 [Compound 22] | > 100 µM | –
Cc1nc(N)c2c(C(N)=O)cn([C@@H]3O[C@H](COCP(=O)(O)O)[C@@H](O)[C@H]3O)c2n1 [Compound 23] | > 100 µM | –
CCCCCCCCCCCCCCCCOCCCOP(=O)(O)COC[C@H]1O[C@@H](n2cc(C(N)=O)c3c(N)nc(C)nc32)[C@H](O)[C@@H]1O [Compound 24] | > 20 µM | –
CCOP(=O)(COC[C@H]1O[C@@H](n2cc(C(N)=O)c3c(N)nc(C)nc32)[C@H](O)[C@@H]1O)OCC [Compound 25] | > 100 µM | –
NC(=O)c1cn([C@@H]2O[C@H](CO)[C@@H](O)[C@H]2O)c2nc(C(F)(F)F)nc(N)c12 [Compound 26] | > 100 µM | –
Cc1nc(Cl)c2c(C#N)cn([C@@H]3O[C@H](CO)[C@@H](O)[C@H]3O)c2n1 [Compound 29] | > 100 µM | –

SMILES | EC50 [1] | further results
COc1nc(C)nc2c1c(C#N)cn2[C@@H]1O[C@H](CO)[C@@H](O)[C@H]1O [Compound 30] | > 100 µM | –
Cc1nc(O)c2c(C#N)cn([C@@H]3O[C@H](CO)[C@@H](O)[C@H]3O)c2n1 [Compound 31] | > 100 µM | –
Cc1nc(N)c2c(C(N)=O)c[nH]c2n1 [Compound 32] | > 100 µM | –
Cc1nc(N)c2c(C(=O)O)cn([C@@H]3O[C@H](COCc4ccccc4)[C@@H](O)[C@H]3O)c2n1 [Compound 33] | > 100 µM | –
Cc1ncc2c(C(=O)O)cn([C@@H]3O[C@H](CO)[C@@H](O)[C@H]3O)c2n1 [Compound 34] | > 100 µM | –
Cc1ncc2c(C(N)=O)cn([C@@H]3O[C@H](CO)[C@@H](O)[C@H]3O)c2n1 [Compound 35] | > 100 µM | –
CNc1nc(C)nc2c1c(C(N)=O)cn2[C@@H]1O[C@H](CO)[C@@H](O)[C@H]1O [Compound 36] | > 100 µM | –
Cc1nc(N(C)C)c2c(C(N)=O)cn([C@@H]3O[C@H](CO)[C@@H](O)[C@H]3O)c2n1 [Compound 37] | > 100 µM | –
Cc1nc(N)c2c(C(N)=O)cn([C@@H]3O[C@H](CO)[C@@H](O)[C@H]3O)c2n1 [Compound 38] | > 100 µM | –
CNC(=O)c1cn([C@@H]2O[C@H](CO)[C@@H](O)[C@H]2O)c2nc(C)nc(N)c12 [Compound 39] | > 100 µM | –
Cc1nc(N)c2c(C(N)=O)cn([C@@H]3O[C@H](CO)[C@@H](O)C3(F)F)c2n1 [Compound 40] | > 100 µM | –
Cc1nc(N)c2c(C(=O)N(C)C)cn([C@@H]3O[C@H](CO)[C@@H](O)[C@H]3O)c2n1 [Compound 41] | > 100 µM | –
COc1nc(C)nc2c1c(I)cn2[C@@H]1O[C@H](CO)[C@@H](O)[C@H]1O [Compound 42] | > 100 µM | –
CSc1nc(C)nc2c1c(I)cn2[C@@H]1O[C@H](CO)[C@@H](O)[C@H]1O [Compound 43] | > 100 µM | –
Cc1nc(N)c2c(C(N)=O)c(Br)n([C@@H]3O[C@H](CO)[C@@H](O)[C@H]3O)c2n1 [Compound 44] | > 100 µM | –
COC(=O)c1c[nH]c2nc(C)nc(Cl)c12 [Compound 45] | > 100 µM | –
Cc1nc(N)c2cc[nH]c2n1 [Compound 46] | > 100 µM | –
COc1nc(C)nc2c1c(CN)cn2[C@@H]1O[C@H](CO)[C@@H](O)[C@H]1O [Compound 47] | > 100 µM | –
Cc1nc(N)c2ccn([C@@H]3O[C@H](CO)[C@@H](O)[C@H]3O)c2n1 [Compound 48] | > 100 µM | –
Cc1nc(N)c2c(C(N)=O)cn(C[C@H](O)CO)c2n1 [Compound 50] | > 100 µM | –
Cc1nc(N)c2c(C(N)=O)cn(C[C@H](C)O)c2n1 [Compound 51] | > 100 µM | –
Cc1nc(N)c2c(C(N)=O)cn(C[C@@H](CO)OCP(=O)(O)O)c2n1 [Compound 52] | > 100 µM | –
CCOP(=O)(CO[C@H](CO)Cn1cc(C(N)=O)c2c(N)nc(C)nc21)OCC [Compound 53] | > 100 µM | –
Cc1nc(N)c2ccn(C[C@H](C)O)c2n1 [Compound 54] | > 100 µM | –

SMILES | EC50 [1] | further results
CCCCCCCCCCCCCCCCOCCCOP(=O)(O)CO[C@H](CO)Cn1cc(C(N)=O)c2c(N)nc(C)nc21 [Compound 56] | 75.3 µM | –
Cc1nc(N)c2c(C(N)=O)cn([C@@H]3O[C@H](CO)[C@@H](O)[C@H]3N=[N+]=[N-])c2n1 [Compound 57] | > 100 µM | –
CCOP(=O)(CO[C@H](C)Cn1cc(C(N)=O)c2c(N)nc(C)nc21)OCC [Compound 58] | > 100 µM | –
Cc1nc(N)c2c(C(N)=O)cn(C[C@@H](C)OCP(=O)(O)O)c2n1 [Compound 59] | > 100 µM | –
COc1nc(C)nc2c1c(C(N)=O)cn2[C@@H]1O[C@H](COC(=O)[C@@H](NC(=O)OC(C)(C)C)C(C)C)[C@@H](O)[C@@]1(C)O [Compound 61] | > 100 µM | –
Cc1nc(N)c2c(C(N)=O)cn(C3(C)O[C@H](COC(=O)[C@@H](N)C(C)C)[C@@H](O)[C@H]3O)c2n1 (stereo partly drawn) [Compound 62] | > 100 µM | –
Cc1nc(N)c2c(C(N)=O)cn([C@@H]3O[C@H](COC(=O)[C@@H](NC(=O)OCC4C5C=CC=CC5C5C=CC=CC54)C(C)C)[C@@H](O)[C@H]3O)c2n1 (stereo partly drawn) [Compound 63] | > 100 µM | –
CCOP(=O)(COC(CO)Cn1cc(C(N)=O)c2c(N)nc(C)nc21)OCC (stereo not drawn) [Compound 64] | > 100 µM | –
COc1ccc2cc([C@@H](C)C(=O)OC[C@H]3O[C@@H](n4cc(C(N)=O)c5c(N)nc(C)nc54)[C@@H]4OC(C)(C)O[C@@H]43)ccc2c1 [Compound 65] | > 100 µM | –
CCOP(=O)(COC[C@@H]1C=C[C@H](n2cc(C(N)=O)c3c(N)nc(C)nc32)O1)OCC [Compound 67] | > 100 µM | –
CCOP(=O)(CO[C@H]1O[C@@H](n2cc(C#N)c3c(N)nc(C)nc32)[C@H](O)[C@@H]1O)OCC [Compound 68] | > 100 µM | –
Cc1nc(N)c2c(C(N)=O)cn([C@@H]3O[C@H](OCP(=O)(O)O)[C@@H](O)[C@H]3O)c2n1 [Compound 70] | > 100 µM | –
Cc1nc(N)c2c(C(N)=O)cn([C@@H]3O[C@H](COP(=O)(O)O)[C@@H](O)[C@H]3O)c2n1 [Compound 71] | – | EC50 (Table 7): 3.15 µM
CCOP(=O)(CO[C@H]1O[C@@H](n2cc(C(N)=O)c3c(N)nc(C)nc32)[C@H](O)[C@@H]1O)OCC [Compound 73] | > 100 µM | –
CCOP(=O)(C[C@H]1O[C@@H](n2cc(C(N)=O)c3c(N)nc(C)nc32)[C@H](O)[C@@H]1O)OCC [Compound 74] | > 100 µM | –
Cc1nc(N)c2c(C(N)=O)cn([C@@H]3O[C@H](CP(=O)(O)O)[C@@H](O)[C@H]3O)c2n1 [Compound 75] | > 100 µM | –
Cc1nc(N)c2c(C(N)=O)cn([C@@H]3O[C@H](COC(=O)[C@H](CC(C)C)NC(=O)OCC4c5ccccc5-c5ccccc54)[C@@H](O)[C@H]3O)c2n1 [Compound 76] | – | EC50 (Table 7): 16.4 µM
Cc1nc(N)c2c(C(N)=O)cn([C@@H]3O[C@H](COC(=O)[C@@H](N)CC(C)C)[C@@H](O)[C@H]3O)c2n1 [Compound 77] | – | EC50 (Table 7): 4.4 µM
Cc1nc(N)c2c(C(N)=O)cn([C@@H]3O[C@@H]4OCP(=O)(O)O[C@H]4[C@H]3O)c2n1 [Compound 78] | > 100 µM | –
CCCCCCCCCCCCCCCCOCCCOP(=O)(O)OC[C@H]1O[C@@H](n2cc(C(N)=O)c3c(N)nc(C)nc32)[C@H](O)[C@@H]1O [Compound 79] | > 100 µM | –
Cc1nc(N)c2ccn([C@@H]3O[C@H](COCc4ccccc4)[C@@H](O)[C@H]3O)c2n1 [Compound 82] | > 100 µM | –
NC(=O)c1cn([C@@H]2O[C@H](CO)[C@@H](O)[C@H]2O)c2nc(N)nc(N)c12 [Compound 83] | > 100 µM | –
Cc1nc(N)c2c(S(=O)(=O)O)cn([C@@H]3O[C@H](CO)[C@@H](O)[C@H]3O)c2n1 [Compound 84] | > 100 µM | –
